Values of other authors in patent US5780494A, “Piperidinyl-terminated alkylamino ethynl alanine amino diol compounds for treatment of hypertension” (G. D. Searle & Co., priority 1997, dated 1998).
Square brackets hold non-standard residues; d marks the D form. Peptide text beside a SMILES is read from it. * marks the point of attachment. Sta = CC(C)C[C@H](N)[C@@H](O)CC(=O)O; Isovaleryl = CC(C)CC(=O)*

Assays:
[1] = system: hog renin; settings: after the injection of hog renin into nephrectomized rats
[2] = system: pepsin
[3] = system: cathepsin D
[4] = system: renin

In the case of `CC(C)CC(=O)N[C@H](C(=O)N[C@H](C(=O)N[C@@H](CC(C)C)[C@@H](O)CC(=O)N[C@@H](C)C(=O)N[C@@H](CC(C)C)[C@@H](O)CC(=O)O)C(C)C)C(C)C` [pepstatin] (Isovaleryl-VV[Sta]A[Sta]-OH), the blood pressure reduction [1] is listed as “found to reduce blood pressure”, the inhibition of pepsin [2] is listed as “inhibitor” and the “inhibition of cathepsin D” value [3] is listed as “inhibitor”. The inhibition of renin [4] was “inhibitor”.
